From the NIST ThermoML archive (doi:10.1021/je700260f)

Settings: Liquid, Vibrating tube method

FC(C(F)(F)F)C(F)(F)F [1,1,1,2,3,3,3-heptafluoropropane]
Settings	mass density [kg/m3]
303.14 K, 14797 kPa	1456.7
303.14 K, 14835 kPa	1456.8
303.14 K, 17693 kPa	1469.8
303.14 K, 21659 kPa	1486
303.14 K, 21693 kPa	1486.3
303.14 K, 21731 kPa	1486.4
303.14 K, 21764 kPa	1486.4
303.14 K, 21797 kPa	1486.6
303.14 K, 21835 kPa	1486.9
303.14 K, 21869 kPa	1486.9
303.14 K, 21906 kPa	1486.9
303.14 K, 21939 kPa	1487.2
303.14 K, 21972 kPa	1487.3
303.14 K, 22005 kPa	1487.5
303.14 K, 22039 kPa	1487.5
303.14 K, 22067 kPa	1487.7
303.14 K, 22096 kPa	1487.7
303.14 K, 22140 kPa	1487.9
303.14 K, 22178 kPa	1488.1
303.14 K, 22208 kPa	1488.1
303.14 K, 22251 kPa	1488.4
303.14 K, 22280 kPa	1488.4
303.14 K, 22361 kPa	1488.8
303.14 K, 22404 kPa	1488.9
303.14 K, 23559 kPa	1493.4
303.14 K, 23594 kPa	1493.4
303.14 K, 23621 kPa	1493.5
303.14 K, 23651 kPa	1493.8
303.14 K, 23681 kPa	1493.8
303.14 K, 26459 kPa	1504
303.14 K, 26487 kPa	1503.9
303.14 K, 26573 kPa	1504.3
303.14 K, 26602 kPa	1504.5
303.14 K, 26627 kPa	1504.5
303.14 K, 26661 kPa	1504.7
303.14 K, 26685 kPa	1504.6
303.14 K, 27097 kPa	1506
303.14 K, 27130 kPa	1506.1
303.14 K, 27159 kPa	1506.3
303.14 K, 27188 kPa	1506.5
303.14 K, 27217 kPa	1506.5
303.14 K, 27398 kPa	1507.2
303.14 K, 27427 kPa	1507.2
303.14 K, 27494 kPa	1507.5
303.14 K, 27528 kPa	1507.5
303.14 K, 27562 kPa	1507.7
303.14 K, 27605 kPa	1507.8
303.14 K, 27634 kPa	1507.9
303.14 K, 27671 kPa	1508
303.14 K, 27705 kPa	1508.1
303.14 K, 27735 kPa	1508.3
303.14 K, 27769 kPa	1508.4
303.14 K, 27803 kPa	1508.5
303.14 K, 27840 kPa	1508.4
303.14 K, 27861 kPa	1508.6
303.14 K, 27887 kPa	1508.9
303.14 K, 27917 kPa	1508.9
303.14 K, 27946 kPa	1509
303.14 K, 27976 kPa	1509.1
303.14 K, 28006 kPa	1509.2
303.14 K, 28040 kPa	1509.3
303.14 K, 28065 kPa	1509.5
303.14 K, 28095 kPa	1509.5
303.14 K, 28120 kPa	1509.6
303.14 K, 28158 kPa	1509.6
303.14 K, 28184 kPa	1509.9
303.14 K, 28206 kPa	1510
303.14 K, 28241 kPa	1510
303.14 K, 28271 kPa	1510.1
303.14 K, 28300 kPa	1510.2
303.14 K, 28330 kPa	1510.4
303.14 K, 28355 kPa	1510.5
303.14 K, 28394 kPa	1510.6
303.14 K, 31947 kPa	1522.2
303.14 K, 31984 kPa	1522.4
303.14 K, 32012 kPa	1522.5
303.14 K, 32053 kPa	1522.5
303.14 K, 32086 kPa	1522.6
303.14 K, 32123 kPa	1522.8
303.14 K, 32155 kPa	1522.9
303.14 K, 32187 kPa	1522.9
303.14 K, 32215 kPa	1523
303.14 K, 32251 kPa	1523.2
303.14 K, 32280 kPa	1523.2
303.14 K, 32322 kPa	1523.4
303.14 K, 32345 kPa	1523.3
303.14 K, 32382 kPa	1523.4
303.14 K, 32418 kPa	1523.7
303.14 K, 32449 kPa	1523.8
303.14 K, 32481 kPa	1523.9
303.14 K, 32513 kPa	1524
303.14 K, 32542 kPa	1524.1
303.14 K, 32574 kPa	1524.1
303.14 K, 32603 kPa	1524.3
303.14 K, 32646 kPa	1524.3
303.14 K, 32674 kPa	1524.4
303.14 K, 32713 kPa	1524.6
303.14 K, 32736 kPa	1524.6
303.14 K, 32764 kPa	1524.8
303.14 K, 32792 kPa	1524.9
303.14 K, 32830 kPa	1524.9
303.14 K, 32858 kPa	1525.1
303.14 K, 32887 kPa	1525.2
303.14 K, 32920 kPa	1525.2
303.14 K, 32949 kPa	1525.4
303.14 K, 32977 kPa	1525.5
303.14 K, 33020 kPa	1525.5
303.14 K, 33054 kPa	1525.6
303.14 K, 33098 kPa	1525.7
303.14 K, 33133 kPa	1525.9
303.14 K, 33172 kPa	1526
303.14 K, 33200 kPa	1526.1
303.14 K, 33239 kPa	1526.2
303.14 K, 33268 kPa	1526.3
303.14 K, 33306 kPa	1526.5
303.14 K, 33345 kPa	1526.6
303.14 K, 33378 kPa	1526.7
303.14 K, 33413 kPa	1526.7
303.14 K, 33457 kPa	1526.9
303.14 K, 33496 kPa	1527.1
303.14 K, 33537 kPa	1527.1
303.14 K, 33567 kPa	1527.3
303.14 K, 33615 kPa	1527.5
303.14 K, 33644 kPa	1527.5
303.14 K, 33683 kPa	1527.6
303.14 K, 33717 kPa	1527.8
303.14 K, 33758 kPa	1527.8
303.14 K, 33793 kPa	1527.9
303.14 K, 33838 kPa	1528
303.14 K, 33877 kPa	1528.2
303.14 K, 33912 kPa	1528.4
303.14 K, 34122 kPa	1529
303.14 K, 34158 kPa	1529
303.14 K, 34201 kPa	1529.1
303.14 K, 34250 kPa	1529.3
303.14 K, 34300 kPa	1529.4
303.14 K, 34356 kPa	1529.6
303.14 K, 34400 kPa	1529.8
303.14 K, 34442 kPa	1529.9
303.14 K, 34476 kPa	1529.9
303.14 K, 34501 kPa	1530.1
303.14 K, 34513 kPa	1530
303.14 K, 34522 kPa	1530.1
303.14 K, 34526 kPa	1530.1
303.15 K, 540 kPa	1366.5
303.15 K, 560 kPa	1366.8
303.15 K, 580 kPa	1367
303.15 K, 600 kPa	1367.1
303.15 K, 630 kPa	1367.3
303.15 K, 650 kPa	1367.5
303.15 K, 680 kPa	1367.6
303.15 K, 700 kPa	1368
303.15 K, 720 kPa	1368.1
303.15 K, 740 kPa	1368.3
303.15 K, 750 kPa	1368.5
303.15 K, 780 kPa	1368.7
303.15 K, 800 kPa	1368.9
303.15 K, 830 kPa	1369.2
303.15 K, 850 kPa	1369.3
303.15 K, 870 kPa	1369.5
303.15 K, 900 kPa	1369.8
303.15 K, 920 kPa	1369.9
303.15 K, 950 kPa	1370.1
303.15 K, 980 kPa	1370.4
303.15 K, 1000 kPa	1370.7
303.15 K, 1030 kPa	1370.9
303.15 K, 1060 kPa	1371.1
303.15 K, 1090 kPa	1371.4
303.15 K, 1110 kPa	1371.6
303.15 K, 1139 kPa	1371.8
303.15 K, 1161 kPa	1372
303.15 K, 1177 kPa	1372.1
303.15 K, 1199 kPa	1372.3
303.15 K, 1213 kPa	1372.5
303.15 K, 1250 kPa	1372.8
303.15 K, 1267 kPa	1372.9
303.15 K, 1284 kPa	1373.1
303.15 K, 1299 kPa	1373.1
303.15 K, 1317 kPa	1373.4
303.15 K, 1339 kPa	1373.5
303.15 K, 1354 kPa	1373.7
303.15 K, 1374 kPa	1373.9
303.15 K, 1395 kPa	1374.1
303.15 K, 1417 kPa	1374.2
303.15 K, 1440 kPa	1374.4
303.15 K, 1464 kPa	1374.6
303.15 K, 1481 kPa	1374.7
303.15 K, 1505 kPa	1375
303.15 K, 1522 kPa	1375
303.15 K, 1548 kPa	1375.3
303.15 K, 1568 kPa	1375.5
303.15 K, 1590 kPa	1375.6
303.15 K, 1608 kPa	1375.8
303.15 K, 1631 kPa	1375.9
303.15 K, 1645 kPa	1376.1
303.15 K, 1666 kPa	1376.5
303.15 K, 1689 kPa	1376.4
303.15 K, 1706 kPa	1376.6
303.15 K, 1732 kPa	1376.9
303.15 K, 1794 kPa	1377.4
303.15 K, 1812 kPa	1377.6
303.15 K, 1859 kPa	1377.8
303.15 K, 1883 kPa	1377.9
303.15 K, 1903 kPa	1378.3
303.15 K, 1924 kPa	1378.4
